# Laboratory results taken from publication PMC12598832, “Synthesis and Anticancer Potential of New Benzimidazole Theranostic” (ChemistryOpen, 2025).
# Where “and” joins values, the source holds several entries; their conditions need not be identical. Identical values can stand only once. Counter-ions that a name gives are not always drawn. Like-named read-outs stand apart in the source and are kept apart here.
# Assays:
# [1] = system: H103 (oral squamous cell carcinoma, OSCC) cell line; experiment: MTT cell proliferation assay, H103; assay type: cell-based; details: for H103 Selectivity Index (SI): versus HEK293; for IC50: MTT, 72 h, read-out: H103 IC50 [μM] ± SEM
# Text: (§1) The H103 and H314 OSCC cell lines were obtained from the European Collection of Cell Cultures (ECACC). The HCT116 and HEK293 cell lines were obtained from the American Type Culture Collection (Rockville, MD).
# (§2) All cell lines were maintained in high‐glucose Dulbecco's Modified Eagle Media (DMEM) (Sigma‐Aldrich, Buchs, Switzerland). The culture media was supplemented with 10% fetal bovine serum (FBS) (TICO, Amsterdam, Netherlands) and 1% penicillin‐streptomycin. Prior to the cell‐based assay, cell lines were incubated at 37 °C in a 5% CO2 humidified atmosphere
# (§3) Cells were seeded in 96‐well plates at a density of 5 × 10^3 per well. After 24 h of seeding, the cells were treated with 50 μM of the compounds of interest (final concentration 0.25% DMSO) and allowed to adhere for 72 h at 37 °C in a 5% CO2 humidified atmosphere. The 3‐(4,5‐dimethylthiazol‐2‐yl)‐2,5‐diphenyltetrazolium bromide (MTT) assay was conducted to examine the cell cytotoxicity profiles of the synthesized compounds. Briefly, the treatment media was discarded, and 0.5 mg mL^−1 of MTT was added to each well. The plates were incubated for another 4 h at 37 °C in a 5% CO2 humidified atmosphere. Following the incubation, the medium‐MTT solution was removed, and 100 μL of DMSO was added to dissolve the formazan crystals. The absorbance was measured at 570 nm, with the reference wavelength at 620 nm, using the Tecan Infinite 200 Pro. The experiment was carried out in triplicate.
# H314 (OSCC) cell line = experiment: MTT cell proliferation assay, H314; assay type: cell-based; details: for IC50: MTT, read-out: H314 IC50 [μM] ± SEM; for IC50 / cytotoxic effect in preliminary screening, H314: 72 h; for H314 Selectivity Index (SI): versus HEK293; for cytotoxic effect in preliminary screening, H314: 50 μM, versus control 0.25% DMSO, ANOVA/Tukey
# Text: as §1, §2
# as §3, with “After 24 h of seeding, the cells were treated with 50 μM of the compounds of interest (final concentration 0.25% DMSO) and allowed to adhere for 72 h at 37 °C in a 5% CO2 humidified atmosphere.” left out
# [2] = system: HCT116 (colorectal carcinoma) cell line; experiment: MTT cell proliferation assay, HCT116; assay type: cell-based; details: for IC50: MTT, 72 h, read-out: HCT116 IC50 [μM] ± SEM; for HCT116 Selectivity Index (SI): versus HEK293
# HEK293 cells = experiment: MTT cell proliferation assay, HEK293 (noncancerous); assay type: cell-based, human; details: read-out: HEK293 IC50 [μM] ± SEM
# Text: as §1, §2, §3
# [3] = system: H103 (oral squamous cell carcinoma, OSCC) cell line; design: method as in PMID 32904142; details: previous study; cited from earlier work
# H103 cell line = system: H103 cell line; design: method as in ref 28 Khoo et al.; details: 24 h treatment; ref 28 Khoo et al.; cited from earlier work
# H314 cell line = system: H314 cell line; design: method as in ref 28 Khoo et al.; details: 24 h treatment; ref 28 Khoo et al.; cited from earlier work
# SIRT2 human recombinant = molecular target: T1, SIRT2 human recombinant (Homo sapiens, UniProt Q8IXJ6); experiment: SIRT2 Direct Fluorescent Screening Assay Kit (Cayman); assay type: biochemical; details: for IC50: five concentrations 1-50 μM
# T1 construct: purchased Cayman Chemicals, Ann Arbor 700,280
# T1 sequence (Q8IXJ6 1-389): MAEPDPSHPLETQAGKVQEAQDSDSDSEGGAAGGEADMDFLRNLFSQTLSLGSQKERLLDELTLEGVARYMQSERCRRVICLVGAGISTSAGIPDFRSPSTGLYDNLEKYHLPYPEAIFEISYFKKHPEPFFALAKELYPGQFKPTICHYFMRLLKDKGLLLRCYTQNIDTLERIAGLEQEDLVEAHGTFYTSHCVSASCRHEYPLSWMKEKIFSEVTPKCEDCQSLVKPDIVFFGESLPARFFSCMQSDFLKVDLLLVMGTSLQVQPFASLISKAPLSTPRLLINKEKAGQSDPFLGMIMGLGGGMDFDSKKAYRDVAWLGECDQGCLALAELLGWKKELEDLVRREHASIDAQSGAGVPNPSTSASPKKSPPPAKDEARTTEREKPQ
# Procedure: The SIRT2 inhibitory activity of the compounds was evaluated using the SIRT2 Direct Fluorescent Screening Assay Kit (Cayman Chemicals, Ann Arbor, C/N: 700,280) according to the manufacturer's instructions. The SIRT2 peptide substrate comprised amino acids 317–320 of human p53 conjugated to […] (Gln‐Pro‐Lys‐Lys(ε‐acetyl)‐AMC). […] Subsequently, 50 μl of developer solution (6 μg μl^−1 SIRT2 developer, 2 mM nicotinamide) was added. The mixture was incubated for a further 30 min at room temperature. […] The fluorescence was measured with excitation and emission wavelengths of 355 and 460 nm, respectively, using the Tecan Infinite 200 Pro. The percentage inhibition was determined as the ratio of […] under each experimental condition to that of the control.
# [4] = Fluorescence properties (molar extinction coefficient, quantum yield, Stokes shift); assay type: physicochemical
# Procedure: A series of dilutions of V7 (dissolved in DMSO) was prepared. The absorbance of the solutions at 326 nm was recorded on the UviLine 9400 spectrophotometer using a quartz cuvette (10 × 10 mm). A calibration curve of absorbance against concentration was generated. The molar extinction coefficient was calculated from the gradient of the line of best fit, in accordance with Beer–Lambert's law.
# A series of dilutions of V7 (dissolved in DMSO) was prepared. The fluorescence emission peak at each concentration was determined using the Tecan Infinite 200 Pro microplate reader (λex = 326 nm and λem = 492 nm). The […] peak was plotted against the fluorescence emission peak and compared to that of a quinine sulfate standard, which has a known quantum yield.
# The quantum yield of V7 was subsequently calculated using the following equation Φ=ΦR(Grad/GradR)(n^2/nr2)
# The quinine sulfate reference has a quantum yield of 54.6% when dissolved in 0.5 M H2SO4.^[ [26] ^] The refractive index of 0.5 M H2SO4 is 1.346, while the refractive index of DMSO is 1.479.^[ [27] ^]
# [5] = design: method as in ref 26 = [26]; 26 W. H. Melhuish , J. Phys. Chem. 1961 , 65 , 229 .; details: in 0.5 M H2SO4; cited from earlier work
# [6] = compound 50 μM, preliminary screening, read-out: Percentage SIRT2 inhibition (%)
# [7] = compound 50 μM, preliminary screening
# [8] = dose-response, 50 μM, read-out: % Inhibition of SIRT2
SMILES,IC50 (H314 (OSCC) cell line) [µM],"IC50 ([2]; Homo sapiens, HCT-116) [µM]",inhibition at 50 µM (SIRT2 human recombinant; [6]) [%],Percentage SIRT2 inhibition (%) (SIRT2 human recombinant; [7]),H103 Selectivity Index (SI) [1],HCT116 Selectivity Index (SI) [2],"IC50 (HEK293 cells; Homo sapiens, HEK293, 72 h) [µM]",H314 Selectivity Index (SI) (H314 (OSCC) cell line),other results
"CCOC(=O)c1ccc2[nH]c(-c3ccc4c(c3)OCO4)nc2c1 [BZD9Q1, reference compound]",> 100,11.5 ± 2.3,–,–,3.15,1.60,18.4 ± 2.95,–,IC50 [3]: 5.83 µM
"N.N.[Cl][Pt][Cl] [Cisplatin, reference compound]",15.1 ± 1.05,–,–,–,1.91,0.43,–,0.23,IC50 [1]: 1.85 ± 0.42 µM; sensitivity in H103 relative to H314 ([1]; from IC50 values of Table 2): 8 fold; IC50 [2]: 8.24 ± 0.86 µM; IC50 (HEK293 cells; 72 h): 3.54 ± 0.18 µM; IC50 (H103 cell line): 15 µM; IC50 (H314 cell line): 200 µM
CCOC(=O)c1ccc2[nH]c(-c3cccc(O)c3)nc2c1 [Compound V1],–,–,25.4 ± 11.8,–,–,–,–,–,–
CCOC(=O)c1ccc2[nH]c(-c3ccc(O)cc3O)nc2c1 [Compound V2],–,–,> 95,complete inhibition of enzymatic activity,–,–,–,–,inhibition at 1 µM (SIRT2 human recombinant; dose-response): 19.4 ± 2.4%; inhibition at 3 µM (SIRT2 human recombinant; dose-response): 29.5 ± 6.6%; inhibition at 10 µM (SIRT2 human recombinant; dose-response): 44.5 ± 0.2%; inhibition at 25 µM (SIRT2 human recombinant; dose-response): 59.8 ± 0.1%; inhibition at 50 µM (SIRT2 human recombinant; [8]): 77 ± 0.1%; IC50 (SIRT2 human recombinant): 10.8 µM
CCOC(=O)c1ccc2[nH]c(-c3ccc(O)c(OC)c3)nc2c1 [Compound V3],–,–,61.9 ± 12,–,–,–,–,–,–
CCOC(=O)c1ccc2[nH]c(-c3ccc(OC)c(O)c3)nc2c1 [Compound V4],–,–,–,no SIRT2 inhibition,–,–,–,–,–
CCOC(=O)c1ccc2[nH]c(-c3ccccc3O)nc2c1 [Compound V7],16.7 ± 1.13,13.3 ± 2.52,> 95,complete inhibition of enzymatic activity,3.81,3.34,44.4 ± 3.03,2.66,"IC50 ([1]; Homo sapiens, H103): 11.6 ± 1.04 µM; cytotoxic effect in preliminary screening, H314 (H314 (OSCC) cell line): highly significant effects; inhibition at 1 µM (SIRT2 human recombinant; dose-response): 0.2 ± 5.8%; inhibition at 3 µM (SIRT2 human recombinant; dose-response): 32.8 ± 2.8%; inhibition at 10 µM (SIRT2 human recombinant; dose-response): 66.1 ± 7.1%; inhibition at 25 µM (SIRT2 human recombinant; dose-response): 81.3 ± 3.2%; inhibition at 50 µM (SIRT2 human recombinant; [8]): 100 ± 3%; IC50 (SIRT2 human recombinant): 6.4 µM; molar extinction coefficient (molar absorptivity ε) ([4]; in DMSO, absorbance at 326 nm): 34,477 M^−1 cm^−1 and 34 477 M^−1 cm^−1; quantum yield Φ ([4]; in DMSO, λex 326 nm, λem 492 nm, versus quinine sulfate): 26%; Stokes shift Δλ ([4]; λex 326 nm, λem 492 nm): 166 nm"
C=C[C@H]1C[N@@]2CC[C@H]1C[C@H]2[C@H](O)c1ccnc2ccc(OC)cc12 [quinine sulfate],–,–,–,–,–,–,–,–,quantum yield of reference [5]: 54.6%

# Now from value to molecule, other results behind:
IC50 (H314 (OSCC) cell line) [µM],"IC50 ([2]; Homo sapiens, HCT-116) [µM]",inhibition at 50 µM (SIRT2 human recombinant; [6]) [%],Percentage SIRT2 inhibition (%) (SIRT2 human recombinant; [7]),SMILES,H103 Selectivity Index (SI) [1],HCT116 Selectivity Index (SI) [2],"IC50 (HEK293 cells; Homo sapiens, HEK293, 72 h) [µM]",H314 Selectivity Index (SI) (H314 (OSCC) cell line),other results
31.7 ± 1.27,11.2 ± 3.14,–,no SIRT2 inhibition,CCOC(=O)c1ccc2[nH]c(-c3cccc(OC)c3)nc2c1 [Compound V5],2.00,4.08,45.6 ± 2.18,1.44,"IC50 ([1]; Homo sapiens, H103): 22.8 ± 3.84 µM; cytotoxic effect in preliminary screening, H314 (H314 (OSCC) cell line): highly significant effects"
–,–,11.8 ± 11.4,weakest inhibitory effect,CCOC(=O)c1ccc2[nH]c(-c3ccccc3OC)nc2c1 [Compound V6],–,–,–,–,–
–,–,25.5 ± 12.9,–,CCOC(=O)c1ccc2[nH]c(-c3ccc(OC)c(OC)c3)nc2c1 [Compound V8],–,–,–,–,–
37.8 ± 1.81,16.6 ± 3.52,39.3 ± 7.3,–,CCOC(=O)c1ccc2[nH]c(-c3ccc(O)c(O)c3)nc2c1 [Compound V9],–,3.13,51.8 ± 5.65,1.37,"IC50 ([1]; Homo sapiens, H103): > 50 µM; cytotoxic effect in preliminary screening, H314 (H314 (OSCC) cell line): highly significant effects"
